ChEMBL document CHEMBL4196030, “Enediynes bearing polyfluoroaryl sulfoxide as new antiproliferative agents with dual targeting of microtubules and DNA” (Eur J Med Chem, 2018)
The source made the active and inactive calls. The calls are words filed in the database; no cut-off is given here.

Assays:
[1] = system: BEAS-2B; assay: Cytotoxicity against human BEAS2B cells assessed as reduction in cell viability after 70 hrs by alamar blue assay; assay type: cell-based
[2] = system: BEAS-2B; assay: Antiproliferative activity against human BEAS2B cells after 70 hrs by alamar blue assay; assay type: cell-based
[3] = system: MIA PaCa-2; assay: Antiproliferative activity against human MIAPaCa2 cells after 70 hrs by alamar blue assay; assay type: functional, cell-based; settings: MIA PaCa-2, 70 h
[4] = species on record: Homo sapiens; assay: Disruption of microtubule network in human MIAPaCa2 cells at 5 times antiproliferative IC50 after 1 to 12 hrs by immunofluorescence assay; assay type: cell-based
[5] = system: MIA PaCa-2; assay: Cytotoxicity against human MIAPaCa2 cells assessed as reduction in cell viability after 70 hrs by alamar blue assay; assay type: cell-based; settings: MIA PaCa-2, 70 h
[6] = Ratio of IC50 for antiproliferative activity against human BEAS2B cells to IC50 for cytotoxicity against human BEAS2B cells; assay type: cell-based, BEAS-2B; settings: read-out: Ratio IC50
[7] = system: HBL-100; assay: Antiproliferative activity against human HBL100 cells after 70 hrs by alamar blue assay; assay type: cell-based; settings: HBL-100, 70 h
[8] = Ratio of IC50 for antiproliferative activity against human MIAPaCa2 cells to IC50 for cytotoxicity against human MIAPaCa2 cells; parameters: species or system MIA PaCa-2
[9] = system: HUVEC; assay: Cytotoxicity against HUVEC assessed as reduction in cell viability after 70 hrs by alamar blue assay; assay type: cell-based; settings: Homo sapiens
[10] = system: HUVEC; assay: Antiproliferative activity against HUVEC after 70 hrs by alamar blue assay; assay type: cell-based; settings: Homo sapiens
[11] = system: A498; assay: Disruption of microtubule network in human A498 cells at 5 times antiproliferative IC50 after 1 to 12 hrs by immunofluorescence assay; assay type: cell-based
[12] = Ratio of IC50 for antiproliferative activity against human HBL100 cells to IC50 for cytotoxicity against human HBL100 cells; assay type: cell-based, HBL-100; settings: read-out: Ratio IC50
[13] = system: HBL-100; assay: Cytotoxicity against human HBL100 cells assessed as reduction in cell viability after 70 hrs by alamar blue assay; assay type: cell-based; settings: HBL-100, 70 h
[14] = system: A549; assay: Disruption of microtubule network in human A549 cells at 5 times antiproliferative IC50 after 1 to 12 hrs by immunofluorescence assay; assay type: cell-based

**Q.** For `[O-][S+](CC#Cc1ccccc1C#CCO)c1ccccc1` (stereo unspecified), which IC50 [1] is on record?
**A.** 81.9 µM

**Q.** What about the IC50 [2] of the same compound?
**A.** 29.5 µM

**Q.** And the IC50 [3]?
**A.** 15.9 µM

**Q.** And the Activity [4]?
**A.** inactive

**Q.** And the IC50 [5]?
**A.** 124 µM

**Q.** And the selectivity ratio [6]?
**A.** 2.8

**Q.** And the IC50 [7]?
**A.** 19 µM

**Q.** And the “Ratio IC50” value [8]?
**A.** 7.8

**Q.** What about the IC50 [9] of the same compound?
**A.** 66.2 µM

**Q.** And the IC50 [10]?
**A.** 79.8 µM

**Q.** What about the Activity [11] of the same compound?
**A.** inactive

**Q.** What about the selectivity ratio [12] of the same compound?
**A.** 1.8

**Q.** And the IC50 [13]?
**A.** 35.4 µM

**Q.** And the Activity [14]?
**A.** inactive

**Q.** With `[O-][S+](CC#Cc1cccnc1C#CCOC1CCCCO1)c1c(F)c(F)c(F)c(F)c1F` (stereo unspecified) as the compound, how does the IC50 [3] read?
**A.** 1 µM

**Q.** With `[O-][S+](CC#Cc1ccccc1)c1c(F)c(F)c(F)c(F)c1F` (stereo unspecified) as the compound, how does the IC50 [3] read?
**A.** 7.8 µM

**Q.** Which IC50 [3] does the source give for `O=S(=O)(CC#Cc1ccccc1C#CCO)c1c(F)c(F)c(F)c(F)c1F` here?
**A.** 3.9 µM

**Q.** For `[O-][S+](CC#Cc1ccccc1C#CCCCCO)c1c(F)c(F)c(F)c(F)c1F` (stereo unspecified), which IC50 [3] is on record?
**A.** > 10 µM

**Q.** With `CCOC(=O)c1ccc(C#CCO)c(C#CC[S+]([O-])c2c(F)c(F)c(F)c(F)c2F)c1` (stereo unspecified) as the compound, how does the IC50 [3] read?
**A.** 1.6 µM

**Q.** Which IC50 [3] does the source give for `COCCOCOCC#Cc1ncccc1C#CC[S+]([O-])c1c(F)c(F)c(F)c(F)c1F` (stereo unspecified) here?
**A.** 0.8 µM

**Q.** With `COc1cc2c(c(OC)c1OC)-c1ccc(OC)c(=O)cc1[C@@H](NC(C)=O)CC2` as the compound, how does the Activity [11] read?
**A.** Active
